Counter-ions that a name gives are not always drawn.
What was measured:
[1] = patients treated with pramipexole; cited from earlier work
[2] = molecular target: T1, human dopamine D3 receptors (Homo sapiens, UniProt P35462); assay: Dopamine D3 receptor binding assay ([3H]spiperone, CHO cell membranes)
T1 construct: expressed in transfected cells
Method in brief: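 CHO cell membranes expressing human D3 incubated with 0.2 nM [3H]spiperone in Tris-HCl pH 7.4 with 120 mM NaCl, 5 mM KCl, 2 mM CaCl2, 1 mM MgCl2 at 25° C for 120 min; nonspecific binding with 10 μM BP 897. Filtration read-out; seven concentrations in triplicate, Ki via Cheng-Prusoff.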

[3] = molecular target: T2, recombinant human D2(short) dopamine receptor (Homo sapiens, UniProt P14416); assay: Dopamine D2S receptor binding assay ([3H]spiperone, CHO cell membranes); details: human D2S receptors in CHO cells, 0.2 nM [3H]spiperone, mean ± SEM; read-out: Affinity Ki (D2)
T2 construct: expressed in transfected cells; host or cells: CHO-D2S cells (per Hayes et al. 1992)
Method in brief: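 Membranes from CHO cells expressing human D2S receptor, incubated with 0.2 nM [3H]spiperone in Tris-HCl pH 7.4 with NaCl, KCl, CaCl2, MgCl2, 120 min at 25 °C; nonspecific binding with 10 μM BP 897. Filtration and scintillation counting; seven concentrations in triplicate, Ki from IC50 by Cheng-Prusoff, mean±SEM.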

[4] = test system: 6-OHDA-lesioned rat model of Parkinson's disease; assay: Rotational behaviour in 6-OHDA-lesioned rat model of Parkinson's disease; assay type: in vivo; details: in vivo model
Description: Preparation of 6-OHDA-Lesioned Rat Model of Parkinson's Disease
Male Sprague-Dawley rats weighing 290-350 g were used. The rats were housed in a temperature-controlled room under a 12 hour light/dark cycle with free access to food and water. Thirty minutes prior to surgery, the animals were given the monoamine oxidase-B inhibitor pargyline (5 mg/kg i.p.;) and the noradrenaline uptake inhibitor desipramine (25 mg/kg i.p.). The rats were then placed under general anaesthesia (Flourothane) and immobilised in stereotaxic frame. Following reflection of cranial skin and periostium, a small bur-hole was made in the skull on the right side and a small puncture was made in the dura mater. Each animal then received a unilateral injection of 2.5 μl of the neurotoxin 6-hydroxydopamine hydrobromide (6-OHDA HBr; 5 mg/ml in sterile water with 0.1% ascorbic acid; i.e. 12.5 μg 6-OHDA per rat) into the right medial forebrain bundle at stereotaxic co-ordinates −2.8 mm from bregma, 2 mm lateral to the midline, and 9 mm below the skull. The 6-OHDA injection was made over a 5 minute period using a 5 μl Hamilton syringe. The rats were allowed to recover for 3 weeks following the lesion. Animals then received 0.05 mg/kg s.c. apomorphine to assess the extent of lesion. Animals displaying clear rotational behaviour directed contralateral to the lesioned side were selected for further studies.
Only lesioned animals were used in the study (as determined by apomorphine rotation).
Animals were administered a dose of the test compound at 1 mg/kg or 3 mg/kg (i.p.) and rotational behaviour was assessed for up to 4 hours following drug administration using automated rotometers. Alternatively, animals were administered a dose of the test compound at 10 mg/kg (p.o.) and rotational behaviour was assessed for up to 8 hours following drug administration using automated rotometers.
Each compound was administered to at least 5 rats.
Total net rotational activity. This parameter is calculated as the total number of 180° rotations (net contralateral) over the duration of the experiment.
Data were analysed independently for each novel compound with appropriate parametric statistics. All tests were carried out in Graphpad Prism Version 3.

T1 sequence (P35462 whole entry): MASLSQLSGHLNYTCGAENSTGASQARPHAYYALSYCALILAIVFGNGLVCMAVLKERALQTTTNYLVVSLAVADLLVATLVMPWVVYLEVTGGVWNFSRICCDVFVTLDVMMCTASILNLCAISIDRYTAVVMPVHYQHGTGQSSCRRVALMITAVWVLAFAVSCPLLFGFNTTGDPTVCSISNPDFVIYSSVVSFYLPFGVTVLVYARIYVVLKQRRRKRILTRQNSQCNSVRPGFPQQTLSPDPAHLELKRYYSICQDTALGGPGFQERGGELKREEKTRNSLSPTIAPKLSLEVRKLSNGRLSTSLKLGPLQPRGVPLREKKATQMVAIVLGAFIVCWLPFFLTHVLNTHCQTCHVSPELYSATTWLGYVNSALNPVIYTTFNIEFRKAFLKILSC
T2 sequence (P14416 1-414 isoform P14416-2): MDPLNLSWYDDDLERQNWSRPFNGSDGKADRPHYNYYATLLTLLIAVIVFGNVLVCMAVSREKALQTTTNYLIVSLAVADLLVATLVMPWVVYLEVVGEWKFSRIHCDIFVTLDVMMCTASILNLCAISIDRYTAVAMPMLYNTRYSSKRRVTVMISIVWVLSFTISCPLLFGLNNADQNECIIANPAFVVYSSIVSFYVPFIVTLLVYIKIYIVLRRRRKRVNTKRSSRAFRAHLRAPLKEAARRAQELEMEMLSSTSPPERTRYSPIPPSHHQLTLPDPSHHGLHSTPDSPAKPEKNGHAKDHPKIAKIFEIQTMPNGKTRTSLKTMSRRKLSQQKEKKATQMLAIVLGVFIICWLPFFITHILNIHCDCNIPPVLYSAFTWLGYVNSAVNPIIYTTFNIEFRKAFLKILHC

Ki ([2]; human D3 receptors in CHO cells, 0.2 nM [3H]spiperone, mean ± SEM, read-out: Affinity Ki (D3)) [nM]	Selectivity Ki(D2)/Ki(D3) ([2]; ratio of Ki(D2) to Ki(D3))	Ki [3] [µM]	Structure (SMILES)	patients who may develop oedema [1]	onset of action [4]	short or long acting in vivo [4]
			CCCN[C@H]1CCc2nc(N)sc2C1 [pramipexole, (S)-2-amino-4,5,6,7-tetra-hydro-6-(propylamino)benzothiazole dihydrochloride mono-hydrate]	1-10%		
12.9 ± 3.8	247	3.18 ± 1.73	CCCN(CCN1CCN(C(=O)c2cccc3ccccc23)CC1)C1CCc2ncsc2C1 (stereo not drawn) [Compound 39, [2-(4-Naphthoyl-piperazin-1-yl)-ethyl]-propyl-(4,5,6,7-tetrahydro-benzothiazol-6-yl)-amine]		fast acting	short acting

From US8389555B2, “Medicaments” (Motac Neuroscience Limited, priority 2007, dated 2013)
